From ChEMBL document CHEMBL3046832, “Synthesis of some sulfonamides, disubstituted sulfonylureas or thioureas and some structurally related variants. A class of promising antitumor agents” (2007)

What was measured:
Assay type in all cases: functional
M14 = assay: Cytotoxicity against Homo sapiens (human) M14 cells after 48 hr by SRB assay; conditions: M14, 48 h
LOX IMVI = assay: Cytotoxicity against Homo sapiens (human) LOXIMVI cells after 48 hr by SRB assay
U-251 = assay: Cytotoxicity against Homo sapiens (human) U251 cells after 48 hr by SRB assay; conditions: U-251, 48 h
Hs-578T = assay: Cytotoxicity against Homo sapiens (human) Hs578T cells after 48 hr by SRB assay
MCF7 [1] = assay: Cytotoxicity against Homo sapiens (human) MCF7 cells after 48 hr by SRB assay; conditions: MCF7, 48 h
MDA-MB-231 = assay: Cytotoxicity against Homo sapiens (human) MDA-MB-231 cells after 48 hr by SRB assay; conditions: MDA-MB-231, 48 h
DU-145 = assay: Cytotoxicity against Homo sapiens (human) DU145 cells after 48 hr by SRB assay; conditions: DU-145, 48 h
UO-31 = assay: Cytotoxicity against Homo sapiens (human) UO31 cells after 48 hr by SRB assay; conditions: UO-31, 48 h
RXF 393 = assay: Cytotoxicity against Homo sapiens (human) RXF393 cells after 48 hr by SRB assay; conditions: RXF 393, 48 h
CAKI-1 = assay: Cytotoxicity against Homo sapiens (human) Caki1 cells after 48 hr by SRB assay; conditions: CAKI-1, 48 h
ACHN = assay: Cytotoxicity against Homo sapiens (human) ACHN cells after 48 hr by SRB assay
786-0 = assay: Cytotoxicity against Homo sapiens (human) 786-0 cells after 48 hr by SRB assay; conditions: 786-0, 48 h
[2] = Cytotoxicity against Homo sapiens (human) NCI-ADR-RES cells after 48 hr by SRB assay
SK-OV-3 = assay: Cytotoxicity against Homo sapiens (human) SKOV3 cells after 48 hr by SRB assay; conditions: SK-OV-3, 48 h
OVCAR-8 = assay: Cytotoxicity against Homo sapiens (human) OVCAR8 cells after 48 hr by SRB assay; conditions: OVCAR-8, 48 h
OVCAR-5 = assay: Cytotoxicity against Homo sapiens (human) OVCAR5 cells after 48 hr by SRB assay; conditions: OVCAR-5, 48 h
OVCAR-3 = assay: Cytotoxicity against Homo sapiens (human) OVCAR3 cells after 48 hr by SRB assay; conditions: OVCAR-3, 48 h
UACC-62 = assay: Cytotoxicity against Homo sapiens (human) UACC62 cells after 48 hr by SRB assay; conditions: UACC-62, 48 h
UACC-257 = assay: Cytotoxicity against Homo sapiens (human) UACC257 cells after 48 hr by SRB assay; conditions: UACC-257, 48 h
SK-MEL-5 = assay: Cytotoxicity against Homo sapiens (human) SK-MEL-5 cells after 48 hr by SRB assay; conditions: SK-MEL-5, 48 h
SK-MEL-28 = assay: Cytotoxicity against Homo sapiens (human) SK-MEL-28 cells after 48 hr by SRB assay; conditions: SK-MEL-28, 48 h
[3] = Cytotoxicity against Homo sapiens (human) breast cancer cells after 48 hr by SRB assay; conditions: Cancer cell lines
[4] = Cytotoxicity against Homo sapiens (human) renal cancer cells after 48 hr by SRB assay; conditions: Cancer cell lines
[5] = Cytotoxicity against Homo sapiens (human) ovarian cancer cells after 48 hr by SRB assay; conditions: Cancer cell lines
[6] = Cytotoxicity against Homo sapiens (human) melanoma cells after 48 hr by SRB assay; conditions: Melanoma cell
[7] = Cytotoxicity against Homo sapiens (human) CNS cancer cells after 48 hr by SRB assay; conditions: Cancer cell lines
[8] = Cytotoxicity against Homo sapiens (human) non-small cell lung cancer cells after 48 hr by SRB assay; conditions: Cancer cell lines
NCI-H460 = assay: Cytotoxicity against Homo sapiens (human) NCI-H460 cells assessed as cellular growth after 48 hr by Alamar blue assay; parameters: concentration or dose not given beside the values
SF-268 [9] = assay: Cytotoxicity against Homo sapiens (human) SF268 cells assessed as cellular growth after 48 hr by Alamar blue assay; parameters: concentration or dose not given beside the values
BT-549 = assay: Cytotoxicity against Homo sapiens (human) BT549 cells after 48 hr by SRB assay; conditions: BT-549, 48 h
T47D = assay: Cytotoxicity against Homo sapiens (human) T47D cells after 48 hr by SRB assay
SNB-19 = assay: Cytotoxicity against Homo sapiens (human) SNB19 cells after 48 hr by SRB assay; conditions: SNB-19, 48 h
SF-539 = assay: Cytotoxicity against Homo sapiens (human) SF539 cells after 48 hr by SRB assay; conditions: SF-539, 48 h
SF-295 = assay: Cytotoxicity against Homo sapiens (human) SF295 cells after 48 hr by SRB assay; conditions: SF-295, 48 h
SW-620 = assay: Cytotoxicity against Homo sapiens (human) SW620 cells after 48 hr by SRB assay; conditions: SW-620, 48 h
SF-268 [10] = assay: Cytotoxicity against Homo sapiens (human) SF268 cells after 48 hr by SRB assay; conditions: SF-268, 48 h
KM12 = assay: Cytotoxicity against Homo sapiens (human) KM12 cells after 48 hr by SRB assay; conditions: KM12, 48 h
HCT-15 = assay: Cytotoxicity against Homo sapiens (human) HCT15 cells after 48 hr by SRB assay; conditions: HCT-15, 48 h
HT-29 = assay: Cytotoxicity against Homo sapiens (human) HT-29 cells after 48 hr by SRB assay; conditions: HT-29, 48 h
NCI-H522 = assay: Cytotoxicity against Homo sapiens (human) NCI-H522 cells after 48 hr by SRB assay; conditions: NCI-H522, 48 h
COLO 205 = assay: Cytotoxicity against Homo sapiens (human) COLO205 cells after 48 hr by SRB assay; conditions: COLO 205, 48 h
NCI-H23 = assay: Cytotoxicity against Homo sapiens (human) NCI-H23 cells after 48 hr by SRB assay; conditions: NCI-H23, 48 h
[11] = Cytotoxicity against Homo sapiens (human) NCI-H322 cells after 48 hr by SRB assay; conditions: NCI-H322, 48 h
HOP-92 = assay: Cytotoxicity against Homo sapiens (human) HOP92 cells after 48 hr by SRB assay; conditions: HOP-92, 48 h
EKVX = assay: Cytotoxicity against Homo sapiens (human) EKVX cells after 48 hr by SRB assay
A549 = assay: Cytotoxicity against Homo sapiens (human) A549 cells after 48 hr by SRB assay; conditions: A549, 48 h
MCF7 [12] = assay: Cytotoxicity against Homo sapiens (human) MCF7 cells assessed as cellular growth after 48 hr by Alamar blue assay; parameters: concentration or dose not given beside the values

O=C1CS/C(=N\S(=O)(=O)c2ccc(N3N=C4c5ccccc5CC4C3c3cccs3)cc2)N(c2ccccc2)C1 (stereo not drawn)
GI50 (M14): 39.1 µM | GI50 (LOX IMVI): 21.2 µM | GI50 (U-251): 28 µM | GI50 (Hs-578T): 20.5 µM | GI50 (MCF7 [1]): 88.8 µM | GI50 (MDA-MB-231): 21.4 µM | GI50 (DU-145): 30.7 µM | GI50 (UO-31): 69.3 µM | GI50 (RXF 393): 41 µM | GI50 (CAKI-1): 74.5 µM | GI50 (ACHN): 22.1 µM | GI50 (786-0): 22.1 µM | GI50 [2]: > 100 µM | GI50 (SK-OV-3): > 100 µM | GI50 (OVCAR-8): 25.4 µM | GI50 (OVCAR-5): 34.5 µM | GI50 (OVCAR-3): > 100 µM | GI50 (UACC-62): 16.1 µM | GI50 (UACC-257): 42.3 µM | GI50 (SK-MEL-5): 38.2 µM | GI50 (SK-MEL-28): > 100 µM | GI50 [3]: 50.1 µM | TGI [3]: 95.5 µM | GI50 [4]: 43.9 µM | TGI [4]: 96.4 µM | GI50 [5]: 63.2 µM | TGI [5]: > 100 µM | GI50 [6]: 45.3 µM | TGI [6]: 84.3 µM | GI50 [7]: 57.4 µM | TGI [7]: 99.7 µM | GI50 [8]: 41.2 µM | TGI [8]: 79 µM | Activity (NCI-H460): <=32% | Activity (SF-268 [9]): <=32% | GI50 (BT-549): 21.4 µM | GI50 (T47D): 69.2 µM | GI50 (SNB-19): 55.7 µM | GI50 (SF-539): 27.8 µM | GI50 (SF-295): 32.7 µM | GI50 (SW-620): 45.2 µM | GI50 (SF-268 [10]): > 100 µM | GI50 (KM12): 28.4 µM | GI50 (HCT-15): 35.5 µM | GI50 (HT-29): 61 µM | GI50 (NCI-H522): 23.8 µM | GI50 (COLO 205): 57.2 µM | GI50 (NCI-H23): 24.2 µM | GI50 [11]: 16.9 µM | GI50 (HOP-92): 79.9 µM | GI50 (EKVX): 39.5 µM | GI50 (A549): 47.2 µM | Activity (MCF7 [12]): <=32%
